Assay results reported in PMC6407204, “Oral administration of the cannabigerol derivative VCE-003.2 promotes subventricular zone neurogenesis and protects against mutant huntingtin-induced neurodegeneration” (Translational Neurodegeneration, 2019).

How the values were obtained:
S. typhimurium TA100 = assay: AMES reverse mutation assay, TA100; format: cell-based
Protocol: Supplementary file 40035_2019_148_MOESM4_ESM.pdf: Additional file 4: AMES Data Summary. AMES Experimental Procedure. Approximately ten million bacteria are exposed in triplicate to VCE-003-.2 (7.8, 15.6, 31.3, 62.5, 125 and 250 μg/ml), a negative control (vehicle) and a positive control for 90 min in medium containing a low concentration of histidine (sufficient for about 2 doublings). The cultures were then diluted into indicator medium lacking histidine and dispensed into 48 wells of a 384 well plate (micro-plate format, MPF). The plate was incubated for 48 h at 37 °C, and the number of wells showing growth were counted and compared to the vehicle control. An increase in the number of colonies of at least two-fold over baseline (mean + SD of the vehicle control) and a dose response indicates a positive response. […] Where indicated, S9 fraction from the livers of Aroclor 1254-treated rats was included in the incubation at a final concentration of 4.5%. An NADPH-regenerating system is also included to ensure a steady supply of reducing equivalents. The strains used in this study were S. typhimurium TA98 (hisD3052, rfa, uvrB/pKM10 for detection of frame-shift mutations) and S. typhimurium TA100 ([…], rfa, uvrB/pKM101 for detection of base-pair substitutions). VCE-003.2 was assessed for its mutagenic potential in the AMES reverse mutation assay. This test was performed in the absence and presence of S9 metabolic activation. […] The positive controls all behaved as expected. (PDF 568 kb)

P19 cells = assay: P19 neurosphere formation assay; format: cell-based, mouse; details: P19 cells cultured 24 h
Protocol: All reagents, unless indicated, were from Sigma-Aldrich (St. Louis, MO, USA). The synthesis and structure of VCE-003.2 were previously described. Mouse embryonic teratocarcinoma P19 were cultured in high-glucose DMEM (Invitrogen) supplemented with 10% fetal bovine serum and 1% penicillin/streptomycin. P19 cells were plated in 24-well plates and transfected with Lipofectamine 2000 reagent according to the manufacture’s protocol (Invitrogen). Twenty-four hours post transfection, cells were collected for RNA extraction or luciferase assay determinations. […] Twenty-four hours later the mean neurosphere size was quantified. […]
Fig. 2 VCE-003.2 exerts a pro-neurogenic effect in vitro. a-b Mouse embryonic stem cells (R1 line) were treated with Vehicle, VCE-003.2 (500 nM) during neural differentiation for 21 days. Representative immunofluorescence images and quantification of CTIP2- and doublecortin-positive cells is shown (n = 3). c Luciferase reporter assay of the A4-MARS sequence of the CTIP2 locus was performed 24 h after P19 cell transfection under neuronal differentiation conditions and subject to pharmacological regulation as above. d P19 neurosphere formation assay was performed by culturing the cells for 24 h in the presence of Vehicle or VCE-003.2. […]

`CCCCCC1=C(NCC)C(=O)C(CC=C(C)CCC=C(C)C)=C(O)C1=O` [VCE-003.2, 2-(3,7-dimethyl-octa-2,6-dienyl)-6-ethylamino-3-hydroxy-5-pentyl-(1,4) benzoquinone] was tested, and the “AMES Result” value (S. typhimurium TA100; TA100, S9 no) was “Negative”, the “AMES Result” value (S. typhimurium TA100; TA100, S9 yes) was “Negative” and the mean neurosphere size (P19 cells) was 367.90 ± 15.20 μm.
